Laboratory results published in patent publication US11767322B2 (BRISTOL-MYERS SQUIBB COMPANY, priority 2020, dated 2023).
Read-outs that look alike come from different tables or passages of the source.

Assays:
[1] = molecular target: T1, His-GST-TVMV-hRIPK1(1-324) (Homo sapiens, UniProt Q13546); assay: biochemical; format: binding
T1 construct: The coding region of human RIPK1(1-324) flanked by NdeI site at 5′ end; made in house; host or cells: Spodoptera frugiperda Sf9 insect cells (baculovirus, Bac-to-Bac)
T1 sequence (Q13546 1-324): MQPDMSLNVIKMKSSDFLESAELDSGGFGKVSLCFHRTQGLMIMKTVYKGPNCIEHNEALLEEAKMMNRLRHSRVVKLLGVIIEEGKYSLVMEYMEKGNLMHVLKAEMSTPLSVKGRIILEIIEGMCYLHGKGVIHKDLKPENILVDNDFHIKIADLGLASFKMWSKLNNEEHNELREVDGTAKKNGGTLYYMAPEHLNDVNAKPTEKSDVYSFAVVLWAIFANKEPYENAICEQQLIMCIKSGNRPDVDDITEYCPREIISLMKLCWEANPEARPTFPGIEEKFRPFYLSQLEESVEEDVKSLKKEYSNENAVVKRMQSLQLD

[2] = tested on: MLKL phosphorylation in HT29-L23 human colorectal adenocarcinoma cells; assay: MLKL phosphorylation high-content assay; format: cell-based
[3] = molecular target: GST-tagged PIK3Cδ in complex with PIK3R1 (Homo sapiens, UniProt O00329); assay: PI3Kδ HTRF binding assay; settings: read-out: PIK3CD IC50
GST-tagged PIK3Cδ in complex with PIK3R1, sequence (O00329 whole entry): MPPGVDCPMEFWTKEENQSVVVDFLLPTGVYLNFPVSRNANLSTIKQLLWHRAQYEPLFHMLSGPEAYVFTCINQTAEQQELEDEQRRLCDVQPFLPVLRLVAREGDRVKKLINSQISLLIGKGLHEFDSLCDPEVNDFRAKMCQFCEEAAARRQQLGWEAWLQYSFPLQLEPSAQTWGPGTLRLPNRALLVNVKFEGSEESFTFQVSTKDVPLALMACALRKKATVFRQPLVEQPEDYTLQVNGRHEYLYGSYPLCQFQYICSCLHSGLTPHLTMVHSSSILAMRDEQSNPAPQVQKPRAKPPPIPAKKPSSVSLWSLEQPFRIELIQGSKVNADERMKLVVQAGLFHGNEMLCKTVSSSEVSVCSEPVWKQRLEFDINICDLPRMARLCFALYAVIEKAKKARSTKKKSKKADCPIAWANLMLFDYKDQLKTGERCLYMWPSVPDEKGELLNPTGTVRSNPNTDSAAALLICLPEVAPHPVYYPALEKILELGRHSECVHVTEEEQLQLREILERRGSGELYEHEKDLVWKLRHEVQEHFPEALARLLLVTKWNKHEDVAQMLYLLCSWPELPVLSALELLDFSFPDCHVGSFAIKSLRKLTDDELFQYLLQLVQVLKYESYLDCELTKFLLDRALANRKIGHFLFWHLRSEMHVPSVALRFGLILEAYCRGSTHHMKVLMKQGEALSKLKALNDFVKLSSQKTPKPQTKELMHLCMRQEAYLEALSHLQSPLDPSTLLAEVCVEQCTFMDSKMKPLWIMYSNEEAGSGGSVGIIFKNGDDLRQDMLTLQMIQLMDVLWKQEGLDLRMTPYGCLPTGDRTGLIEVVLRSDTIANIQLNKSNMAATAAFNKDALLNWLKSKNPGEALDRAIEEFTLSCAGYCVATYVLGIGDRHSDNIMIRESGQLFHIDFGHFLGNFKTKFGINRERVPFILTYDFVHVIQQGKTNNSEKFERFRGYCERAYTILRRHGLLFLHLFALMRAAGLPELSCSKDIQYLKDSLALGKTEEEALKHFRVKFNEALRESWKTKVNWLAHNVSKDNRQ
GST-tagged PIK3Cδ in complex with PIK3R1, sequence (P27986 whole entry partner): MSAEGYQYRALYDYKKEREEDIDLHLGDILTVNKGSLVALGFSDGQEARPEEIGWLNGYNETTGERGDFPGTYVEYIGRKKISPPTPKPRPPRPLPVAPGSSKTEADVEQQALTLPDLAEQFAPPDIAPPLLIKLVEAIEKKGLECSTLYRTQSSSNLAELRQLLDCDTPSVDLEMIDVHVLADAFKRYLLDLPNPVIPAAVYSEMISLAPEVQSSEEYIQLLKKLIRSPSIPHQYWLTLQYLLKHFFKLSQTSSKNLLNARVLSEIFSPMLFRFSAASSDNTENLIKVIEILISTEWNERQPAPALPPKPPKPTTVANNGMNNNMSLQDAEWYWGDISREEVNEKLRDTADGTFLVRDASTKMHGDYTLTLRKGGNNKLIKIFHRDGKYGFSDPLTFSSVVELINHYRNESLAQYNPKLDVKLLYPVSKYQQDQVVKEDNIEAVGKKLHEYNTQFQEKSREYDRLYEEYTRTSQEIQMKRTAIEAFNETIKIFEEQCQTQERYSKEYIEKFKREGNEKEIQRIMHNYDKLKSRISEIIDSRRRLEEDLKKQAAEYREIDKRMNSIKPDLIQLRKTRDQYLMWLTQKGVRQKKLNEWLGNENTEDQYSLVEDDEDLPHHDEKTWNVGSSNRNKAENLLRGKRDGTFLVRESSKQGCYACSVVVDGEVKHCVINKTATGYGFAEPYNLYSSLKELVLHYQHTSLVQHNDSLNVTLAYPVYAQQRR

[4] = HTRF probe displacement, 1 h at rt, read-out: RIPK1 IC50
[5] = read-out: pMLKL IC50, HT29-L23 cells, necroptosis induced with TNFα, SMAC mimetic and Z-VAD, 6 h, maximal inhibition defined by Nec1s
[6] = HTRF probe displacement, 1 h at rt
[7] = Homo sapiens, 6 h, read-out: pMLKL IC50, HT29-L23 cells, necroptosis induced with TNFα, SMAC mimetic and Z-VAD, 6 h, maximal inhibition defined by Nec1s
[8] = Table 22, compounds of the present invention, read-out: RPIK1 IC50

| Compound | IC50 [1, 4] [nM] | IC50 [2, 5] [nM] | IC50 [3, 6] [nM] | other results |
| --- | --- | --- | --- | --- |
| Nc1nc2cc(-c3ccc(Cl)c(C(=O)NCCC(O)c4ccc(Cl)cn4)c3F)ccn2n1 (single isomer, unassigned) [Example 83, 3-(2-amino-[1,2,4]triazolo[1,5-a]pyridin-7-yl)-6-chloro-N-(3-(5-chloropyridin-2-yl)-3-hydroxypropyl)-2-fluorobenzamide] | 29 | 17 | 11000 |  |
| Cc1ccc(-c2ccn3nc(N)nc3c2)c(F)c1C(=O)NCCC(O)c1ccc(C(F)(F)F)cc1 (single isomer, unassigned) [Example 57, 3-(2-amino-[1,2,4]triazolo[1,5-a]pyridin-7-yl)-2-fluoro-N-(3-hydroxy-3-(4-(trifluoromethyl)phenyl)propyl)-6-methylbenzamide] | 3.1 | 1.9 | > 15000 |  |
| Nc1nc2cc(-c3ccc(Cl)c(C(=O)NCC(F)(F)[C@@H](F)c4ccc(F)cc4)c3F)ccn2n1 [Example 282, (S)-3-(2-amino-[1,2,4]triazolo[1,5-a]pyridin-7-yl)-6-chloro-2-fluoro-N-(2,2,3-trifluoro-3-(4-fluorophenyl)propyl)benzamide] | 2.2 |  | > 15000 | IC50 [2, 7]: 1.1 nM |
| Cc1ccc(-c2ccn3nc(N)nc3c2)c(F)c1C(=O)NCCC(O)c1ccc(Cl)cc1F (single isomer, unassigned) [Example 69, 3-(2-amino-[1,2,4]triazolo[1,5-a]pyridin-7-yl)-N-(3-(4-chloro-2-fluorophenyl)-3-hydroxypropyl)-2-fluoro-6-methylbenzamide] | 1.4 | 0.4 | > 15000 |  |
| Nc1nc2cc(-c3ccc(Cl)c(C(=O)NCC(F)(F)C(O)c4ccc(Cl)c(Cl)c4)c3F)ccn2n1 (single isomer, unassigned) [Example 265, 3-{2-amino-[1,2,4]triazolo[1,5-a]pyridin-7-yl}-6-chloro-N-[3-(3,4-dichlorophenyl)-2,2-difluoro-3-hydroxypropyl]-2-fluorobenzamide] | 4.1 | 3.6 | > 15000 |  |
| [2H]C([2H])([2H])C(O)(c1ccc(F)cc1)C(F)CNC(=O)c1c(Cl)ccc(-c2ccn3nc(N)nc3c2)c1F (single isomer, unassigned) [Example 239, 3-(2-amino-[1,2,4]triazolo[1,5-a]pyridin-7-yl)-6-chloro-2-fluoro-N-(2-fluoro-3-(4-fluorophenyl)-3-hydroxybutyl-4,4,4-d3)benzamide] | 55 | 26 | > 15000 |  |
| Cc1ccc(-c2ccn3nc(N)nc3c2)cc1C(=O)NCC[C@@H](O)c1ccc(Cl)cc1 [Example 159, (R)-5-(2-amino-[1,2,4]triazolo[1,5-a]pyridin-7-yl)-N-(3-(4-chlorophenyl)-3-hydroxypropyl)-2-methylbenzamide] | 2.5 |  | > 15000 | IC50 [1, 8]: 2.5 nM; IC50 ([2]; Homo sapiens, 6 h, HT29-L23 cells, necroptosis induced with TNFα, SMAC mimetic and Z-VAD, 6 h, maximal inhibition defined by Nec1s, read-out: pMLKL IC50): 1.9 nM; IC50 ([2]; Homo sapiens, Table 22, compounds of the present invention, read-out: pMLKL IC50): 1.9 nM |
| [2H]C([2H])(CC([2H])(O)c1ccc(Cl)cc1)NC(=O)c1c(F)ccc(-c2ccn3nc(N)nc3c2)c1F (single isomer, unassigned) [Example 250, 3-(2-amino-[1,2,4]triazolo[1,5-a]pyridin-7-yl)-N-(3-(4-chlorophenyl)-3-hydroxypropyl-1,1,3-d3)-2,6-difluorobenzamide] | 13 |  | > 15000 | IC50 [2, 7]: 21 nM |
| Nc1nc2cc(-c3ccc(Cl)c(C(=O)NCCC4(c5ccc(F)cc5)CC4)c3F)ccn2n1 [Example 84, 3-(2-amino-[1,2,4]triazolo[1,5-a]pyridin-7-yl)-6-chloro-2-fluoro-N-(2-(1-(4-fluorophenyl)cyclopropyl)ethyl)benzamide] | 1.6 |  | > 15000 | IC50 [2, 7]: 1.1 nM |
| Cc1ccc(-c2ccn3nc(N)nc3c2)c(F)c1C(=O)NCCC(O)c1ccc(F)cc1 (single isomer, unassigned) [Example 51, 3-(2-amino-[1,2,4]triazolo[1,5-a]pyridin-7-yl)-2-fluoro-N-(3-(4-fluorophenyl)-3-hydroxypropyl)-6-methylbenzamide] | 3.7 | 1.8 | > 15000 |  |
| Nc1nc2cc(-c3ccc(Cl)c(C(=O)NCC(F)(F)C(O)c4cc(F)cc(F)c4)c3F)ccn2n1 (stereo not shown) [Example 188, 3-(2-amino-[1,2,4]triazolo[1,5-a]pyridin-7-yl)-6-chloro-N-(3-(3,5-difluorophenyl)-2,2-difluoro-3-hydroxypropyl)-2-fluorobenzamide] | 6.3 | 0.3 | 9400 |  |
| Cc1ccc(-c2ccn3nc(N)nc3c2)c(F)c1C(=O)NCCC(c1ccccc1)C(F)(F)F (single isomer, unassigned) [Example 12, 3-(2-amino-[1,2,4]triazolo[1,5-a]pyridin-7-yl)-2-fluoro-6-methyl-N-(4,4,4-trifluoro-3-phenylbutyl)benzamide] | 3 | 9.2 | > 15000 |  |
| Cc1ccc(-c2ccn3nc(N)nc3c2)c(F)c1C(=O)NCCC(c1ccccc1)C(F)(F)F (single isomer, unassigned) [Example 13, 3-(2-amino-[1,2,4]triazolo[1,5-a]pyridin-7-yl)-2-fluoro-6-methyl-N-(4,4,4-trifluoro-3-phenylbutyl)benzamide] | 0.6 | 27 | > 15000 |  |
| [2H]C([2H])([2H])C(O)(c1ccc(F)cc1)C(F)CNC(=O)c1c(Cl)ccc(-c2ccn3nc(N)nc3c2)c1F (single isomer, unassigned) [Example 238, 3-(2-amino-[1,2,4]triazolo[1,5-a]pyridin-7-yl)-6-chloro-2-fluoro-N-(2-fluoro-3-(4-fluorophenyl)-3-hydroxybutyl-4,4,4-d3)benzamide] | 16 | 1.9 | > 15000 |  |
| Cc1cc(F)c(-c2ccn3nc(N)nc3c2)cc1C(=O)NCCC(O)c1ccc(Cl)cn1 (single isomer, unassigned) [Example 6, 5-(2-amino-[1,2,4]triazolo[1,5-a]pyridin-7-yl)-N-(3-(5-chloropyridin-2-yl)-3-hydroxypropyl)-4-fluoro-2-methylbenzamide] | 5.8 | 2.3 | > 15000 |  |
| (S)-3-(2-amino-[1,2,4]triazolo[1,5-a]pyridin-7-yl)-6-cyclopropyl-N-(2,2-difluoro-3-(4-fluorophenyl)-3-hydroxypropyl)-2-fluorobenzamide [Example 304] | 4.8 |  |  | IC50 ([2]; HT29-L23 cells, necroptosis induced with TNFα, SMAC mimetic and Z-VAD, 6 h, maximal inhibition defined by Nec1s, read-out: pMLKL IC50): 2.8 nM; IC50 [3]: > 15000 nM |
| Cc1cc(F)c(-c2ccn3nc(N)nc3c2)cc1C(=O)NCCC(O)c1ccc(F)cc1 (single isomer, unassigned) [Example 10, 5-(2-amino-[1,2,4]triazolo[1,5-a]pyridin-7-yl)-4-fluoro-N-(3-(4-fluorophenyl)-3-hydroxypropyl)-2-methylbenzamide] | 9.4 | 2.5 | > 15000 | IC50 [1, 8]: 9.4 nM; IC50 ([2]; read-out: pMLKL IC50, Table 22, compounds of the present invention): 2.5 nM |
| Cc1ccc(-c2ccn3nc(N)nc3c2)c(F)c1C(=O)NCCC(O)c1ccccc1F (single isomer, unassigned) [Example 70, 3-(2-amino-[1,2,4]triazolo[1,5-a]pyridin-7-yl)-2-fluoro-N-(3-(2-fluorophenyl)-3-hydroxypropyl)-6-methylbenzamide] | 11 | 8.1 | > 15000 |  |
